{
  "source": "patent US20230141284A1",
  "about": "“CANCER THERAPEUTIC METHOD” (ONO PHARMACEUTICAL CO., LTD., priority 2020, published 2023)",
  "format_in_all_cases": "cell-based",
  "key": {"[1]": {"tested_on": "human acute myeloid leukemia cell lines", "assay": "Anti-tumor effect on human acute myeloid leukemia cell lines (Cell Counting Kit-8)", "settings": "administration alone, 100 to 1000 nmol/L, 48 hours", "experimental": "The compound prepared in Example 3 (Compound B) was evaluated for anti-tumor activity against several human acute myeloid leukemia cell lines shown in the table of FIG. 13.\nThe cell lines above were suspended in medium (RPMI 1640 containing 10% FBS and 1% Penicillin-Streptomycin), respectively, and seeded into 96-well plates at a density of 5.0×10^4 cells/well. Immediately after seeding, mediums containing Compound B and Vehicle (0.1% at the final concentration of DMSO solution after addition to the medium), respectively, were added to each well and mixed well. The final concentration of Compound B after addition to the medium was prepared to be 100 to 1000 nmol/L, respectively. After culturing the cell lines for 48 hours at 37° C. and 5% CO2, 10 μL of Cell Counting Kit-8 (Dojindo) was added to each well, and after incubation for 60 minutes, the absorbance (450 nm) in each well was measured using a microplate reader. EC50 value was calculated from the absorbance value using Graphpad prism (Graphpad Software) to evaluate the effect of Compound B on cell proliferation. […] Relative cell count was calculated according to the following formula. Relative minimum cell count represents the minimum value of the above values.\nRelative cell count (%)=(Absorbance (450 nm) in addition of Compound B−blank)/(Absorbance (450 nm) in addition of Vehicle (0.1% DMSO)−blank)×100 [Formula 1]"}, "[2]": {"tested_on": "IRF (Interferon Regulatory Factor) pathway", "assay": "Effect on IRF (Interferon Regulatory Factor) pathway, Quanti-luc reporter cells", "settings": "activation of the IRF pathway, luminescence, about 24 hours incubation", "experimental": "The cells mainly described at lines 12-20 of the right column on page 183 in Mol Immunol. 2017, Vol. 90, p. 182-189 were suspended in RPMI medium to prepare 2×10^6 cells/mL of cell suspension. 50 μL of the cell suspensions were dispensed into a 96-well plate, to which 50 μL of 6 to 20,000 nmol/L compound solutions were added. After adding the compound, the mixture thereof was incubated at 37° C. for about 24 hours. After incubation, 10 μL of cell suspensions were collected from each well, which were mixed with 50 μL of Quanti-luc (Invivogen). Then, the activation of the IRF pathway was measured by detecting luminescence using a microplate reader (Molecular Devices)."}, "[3]": {"tested_on": "human acute myeloid leukemia cell lines (KG-1α, THP-1 and CMK)", "assay": "Anti-tumor effects in combination with anti-neoplastic agents, human acute myeloid leukemia cell lines", "settings": "combination with Compound B 10 to 1000 nmol/L, 48 hours, absorbance 450 nm", "experimental": "(§1) The anti-tumor effects of the STING agonistic compounds pertaining to the present invention and combination thereof with anti-neoplastic agents were evaluated on several human acute myeloid leukemia cell lines (KG-1α, THP-1 and CMK) and human B-cell lymphoma cell lines (DOHH2 and OLI-Ly3) below.\nThe cell lines above were suspended in medium (RPMI 1640 containing 10% FBS and 1% Penicillin-Streptomycin), respectively, and seeded into 96-well plates at a density of 2.5 to 5×10^4 cells/well. Immediately after seeding, mediums containing Compound B prepared, respectively, such that the final concentrations after addition to the mediums become 0, 10, 30, 100, 300, and 1000 nmol/L and anti-neoplastic agents prepared such that those become the following final concentrations, respectively, were added to each well and mixed well. As a control, DMSO solution prepared such that the final concentration becomes 0.10% after addition to the medium was added thereto, separately. • Venetoclax (final concentrations: 0, 1, 10, 100, 1000, and 10000 nmol/L, respectively), • Cytarabine (final concentrations: 0, 1, 10, 100, 1000, and 10000 nmol/L, respectively), • Azacitidine (final concentrations: 0, 1, 10, 100, 1000, and 10000 nmol/L, respectively), and • Navitoclax (final concentrations: 0, 50, 500, and 5000 nmol/L, respectively) (the concentration of Compound B in combination with Navitoclax is 1000 nmol/L).\nAfter culturing the cell lines for 48 hours at 37° C. and 5% CO2, 10 μL of Cell Counting Kit-8 (Dojindo) was added to each well, and after incubation for 60 minutes, the absorbance (450 nm) in each well was measured using a microplate reader. FIGS. 13, 14, and 15 show results thereof, respectively. In the figures, the “signal intensity” on the vertical axis represents the absorbance value (450 nm), and the lower the value, the higher the anti-tumor effect."}, "[4]": {"tested_on": "human B-cell lymphoma cell lines (DOHH2 and OLI-Ly3)", "assay": "Anti-tumor effects in combination with Navitoclax, human B-cell lymphoma cell lines", "settings": "combination with Compound B 1000 nmol/L, DOHH2 and OLI-Ly3, 48 hours", "experimental": "as §1\nThe cell lines above were suspended in medium (RPMI 1640 containing 10% FBS and 1% Penicillin-Streptomycin), respectively, and seeded into 96-well plates at a density of 2.5 to 5×10^4 cells/well. Immediately after seeding, mediums containing Compound B prepared, respectively, such that the final concentrations after addition to the mediums become 0, 10, 30, 100, 300, and 1000 nmol/L and anti-neoplastic agents prepared such that those become the following final concentrations, respectively, were added to each well and mixed well. […]\nAfter culturing the cell lines for 48 hours at 37° C. and 5% CO2, 10 μL of Cell Counting Kit-8 (Dojindo) was added to each well, and after incubation for 60 minutes, the absorbance (450 nm) in each well was measured using a microplate reader. […] In the figures, the “signal intensity” on the vertical axis represents the absorbance value (450 nm), and the lower the value, the higher the anti-tumor effect."}},
  "data": [
    {"molecule": "CC(=O)c1cc(-c2ncc(-c3cn[nH]c3)c3onc(N)c23)c(F)cc1N", "note": "[Example 3, 1-(2-amino-5-(3-amino-7-(1H-pyrazol-4-yl)isoxazolo[4,5-c]pyridin-4-yl)-4-fluorophenyl)ethan-1-one]", "values": [
      {"measurement": "anti-tumor effect (cell proliferation)", "setting": "[1]", "result": "significant anti-tumor effect"},
      {"measurement": "EC50", "setting": "[2]", "result": 40, "unit": "nM"},
      {"measurement": "anti-tumor activity of Azacitidine", "setting": "[3]", "result": "enhanced"},
      {"measurement": "anti-tumor activity of Cytarabine", "setting": "[3]", "result": "enhanced"},
      {"measurement": "anti-tumor activity of Venetoclax", "setting": "[3]", "result": "enhanced"},
      {"measurement": "anti-tumor activity of Navitoclax", "setting": "[4]", "result": "enhanced"}
    ]}
  ]
}
